{
  "source": "patent US5621102A",
  "about": "“Process for preparing enantiomerically pure xanthine derivatives” (Cell Therapeutics, Inc., priority 1995, dated 1997)",
  "key": {"[1]": {"test_system": "murine B-cell proliferation", "experiment": "B-cell proliferation assay (anti-mu antibody and/or IL-4)", "assay_type": "cell-based", "conditions": "stimulated by anti-mu antibody crosslinked and/or IL-4", "experimental": "A B-cell proliferation assay determines the effect of the inventive compounds on inhibiting proliferation of stimulated B-cells, stimulated by an anti-mu antibody ([…]), IL-4 or PMA (2.5 nM). Ramos B-cell tumor cells or murine splenocytes can be incubated with a stimulating agent, an inventive compound and tritiated thymidine to measure inhibition of cell proliferation caused by the stimulating agent."}, "[2]": {"test_system": "thymocytes", "experiment": "thymocyte costimulator assay (ConA and IL-1α or IL-2)", "assay_type": "cell-based, mice", "conditions": "drug added two hours prior to activation", "experimental": "CT1501R was added to the cells at the doses indicated two hours prior to activation with ConA and IL-1α or IL-2. Background counts were less than 200 cpm.\nA thymocyte costimulator assay is conducted to evaluate the inventive compounds to inhibit activation and proliferation of thymocytes caused by stimulation with Con A and interleukin-1 (IL-1), or […]. Thymuses are obtained from mice (e.g., female Balb/C mice) and the thymuses are removed and dissociated into culture media (e.g., RPMI 1640 without serum supplementation). The dissociated thymus tissue and cell suspension is transferred to centrifuge tubes and allowed to settle, washed with HBSS and resuspended in serum-supplemented culture media (e.g., RPMI 1640 with 10% fetal calf serum). Any contaminating red cells are lysed, and viable cells are resuspended and counted. Thymocytes are plated (e.g., 96-well plates at a density of 2×10^5 cells/well) and a stimulating agent, such as Con A, IL-1 (e.g., IL-1α) or IL-2 is added to the well. The cells are incubated for 4 days at 37 ° C. On the fourth day, the ceils are pulsed with tritiated thymidine and cell proliferation determined. Inventive compounds are added at the time of stimulating agent addition."}, "[3]": {"test_system": "adhesion of U937 cells to activated HUVEC", "experiment": "adhesion of U937 cells to activated HUVEC (BCECF fluorescence)", "assay_type": "cell-based, human", "conditions": "250 μM", "experimental": "HUVEC were stimulated with either IL-1-α (100 ng/ml); TNF-α (10 ng/ml) or LPS ([…]) with or without the addition of 250 μM CT1501R one hour prior to addition of the stimulus. Twelve hours later, the cells were assayed for adhesion of BCECF-labeled U937 cells. FIG. 21 is the relative BCECF fluorescence (+/-SD) for each of the treatment groups.\nMurine peritoneal exudate cell macrophages (PEC) were isolated by perfusion of mouse peritoneum and plated into 96-well trays at 5×10^5 cells per well. Cells were stimulated with 5 μg/ml Salmonella abortus equi-derived endotoxin CLPS; Sigma Chemical Co., L-1887) or 50 ng/ml IL-1α (Genzyme; Cambridge, Mass.) with or without the addition of CT1501R added to the cultures one hour prior to addition of the stimulus. At various times thereafter, supernatants were removed and levels of either TNF-α or IL-1α were assayed using commercial 96-well microtiter immunoassay kits (Genzyme; TNF; Endogen, Boston, Mass.; IL-1α) according to manufacturer's specifications. […] After addition of […] Hanks Balanced Salt Solution (HBSS), the microtiter plate was then analyzed on a Millipore Cytofiuor fluorescent plate reader (excitation 488 nm; emission 525 nm). […]"}, "[4]": {"test_system": "IL-1α", "experiment": "mouse plasma IL-1α ELISA after endotoxin", "assay_type": "in vivo, mice", "experimental": "FIG. 7 illustrates data from mouse plasma IL-1α ELISA measurements. Data were compiled from an average of duplicate ELISA measurements from a single experiment with each point representing pooled serum from three mice.\nFor ELISA measurements of cytokine levels in plasma, blood was collected by retro-orbital or cardiac puncture of anesthetized mice, immediately centrifuged and the EDTA plasma stored at -70° C. Particulate free plasma was thawed on ice and cytokine levels determined utilizing commercial ELISA assays with normal mouse plasma used to generate standard curves. Murine tumor necrosis factor-α and interleukin-1α kits were purchased from Genzyme (Cambridge, Mass.) and Endogen (Boston, Mass.), respectively. Each data point was an average of two ELISA measurements made from EDTA serum pooled from three mice. The data summarized in Table 3 were compiled from two independent experiments; data from Table 4 and 5 were from single experiments of three mice per data point.\nIn particular, peak levels observed at 6, 12 and 18 hours post endotoxin were decreased 1.2, 4.3 and 3.2-fold, respectively. Finally, IL-6 measurements were made in a similar manner (Table 6, FIG. 8)."}},
  "data": [
    {"smiles": "C[C@@H](O)CCCCn1c(=O)c2c(ncn2C)n(C)c1=O", "note": "[CT1501R, (R)-1-(5-hydroxyhexyl)-3,7-dimethylxanthine]", "values": [
      {"measurement": "inhibition of murine B-cell proliferation", "setting": "[1]", "value": "inhibited B-cell proliferation"},
      {"measurement": "inhibition of thymocyte proliferation", "setting": "[2]", "value": "inhibited thymocyte proliferation in a dose-response manner"},
      {"measurement": "relative adhesiveness of activated HUVEC for U937 cells", "setting": "[3]; 1 hour prior to TNF-α, IL-1α or LPS", "value": "marked suppression in the relative adhesiveness"},
      {"measurement": "background attachment of U937 cells to HUVEC", "setting": "[3]; non-activated HUVEC", "value": "no significant effect on background attachment"},
      {"measurement": "decrease of peak plasma IL-1α vs endotoxin only", "setting": "[4]; 6 hours post endotoxin", "value": 1.2, "unit": "fold"},
      {"measurement": "decrease of peak plasma IL-1α vs endotoxin only", "setting": "[4]; 12 hours post endotoxin", "value": 4.3, "unit": "fold"},
      {"measurement": "decrease of peak plasma IL-1α vs endotoxin only", "setting": "[4]; 18 hours post endotoxin", "value": 3.2, "unit": "fold"}
    ]}
  ]
}
